Literature values, collected in publication PMC5641599 (Molecular Metabolism, 2017).
Read-outs that look alike come from different tables or passages of the source.

How the values were obtained:
Conditions in all cases: cited from earlier work
MC4R variants [1] = test system: MC4R variants
MC4R variants [2] = test system: MC4R variants; remark: listed apart in the source
MC4R variants [3] = test system: MC4R variants; remark: listed apart in the source
MC4R variants [4] = test system: MC4R variants; remark: listed apart in the source
[5] = ref Xiang Z, Biochemistry, 2010
[6] = COS-7 cell line, ref Hughes DA, Hum Genet, 2009
[7] = COS-7 cell line, ref Brumm H, Obesity, 2012
[8] = ref Rong R, Clin Endocrinol, 2006
[9] = ref Xiang Z, Biochemistry, 2006
[10] = ref Lubrano-Berthelier C, J Clin Endocrinol Metab, 2006
[11] = MC4R D126Y, ref Wang ZQ, Biochim Biophys Acta, 2011
[12] = MC4R D146N, ref Wang ZQ, Biochim Biophys Acta, 2011
[13] = MC4R F201L, ref Wang ZQ, Biochim Biophys Acta, 2011
[14] = MC4R G231V, ref Wang ZQ, Biochim Biophys Acta, 2011
[15] = MC4R I170del, ref Wang ZQ, Biochim Biophys Acta, 2011
[16] = MC4R I186V, ref Wang ZQ, Biochim Biophys Acta, 2011
[17] = MC4R I195S, ref Wang ZQ, Biochim Biophys Acta, 2011
[18] = MC4R P260Q, ref Wang ZQ, Biochim Biophys Acta, 2011
[19] = MC4R Q307X, ref Wang ZQ, Biochim Biophys Acta, 2011
[20] = MC4R T248A, ref Huang H, J Mol Endocrinol, 2012
[21] = ref Wang ZQ, Biochim Biophys Acta, 2011

For R18L, the Cell surface expression (MC4R variants [1]; ref Srinivasan S, J Clin Invest, 2004) is listed as 95 % of WT and the Cell surface expression (MC4R variants [1]; [5]) is listed as 95 % of WT.

In the case of S30F, the Cell surface expression (MC4R variants [1]; S30F variant alone, ref Lubrano-Berthelier C, Hum Mol Genet, 2003) is listed as 120 % of WT and the Basal activity (MC4R variants [2]; COS-7 cell line, ref Hinney A, J Clin Endocrinol Metab, 2003) is listed as 140 % of WT.

For S30F/G252S, the Cell surface expression (MC4R variants [1]; both variants on the same allele, ref Lubrano-Berthelier C, Hum Mol Genet, 2003) is given as 60 % of WT and the Cell surface expression (MC4R variants [1]; both variants on the same allele, ref Nijenhuis WA, J Biol Chem, 2003) is given as 69 % of WT.

In the case of S36T, the Cell surface expression (MC4R variants [1]; [6]) is listed as 107 % of WT and the Basal activity (MC4R variants [2]; [6]) is listed as 83 % of WT.

For S36Y, the Cell surface expression (MC4R variants [1]; [5]) is given as 90 % of WT.

For “W16X (MVNSTHRGMHTSLHL; nonsense W16X; UniProt P32245 1-15, looked up, fragment)”, the Cell surface expression (MC4R variants [1]; [7]) is given as 5 % of WT and the Cell surface expression (MC4R variants [1]; HEK293 cell line, ref Bolze F, Pharmacogenomics J, 2013) is given as 0 % of WT.

In the case of Y35C, the Cell surface expression (MC4R variants [1]; [8]) is listed as 100 % of WT and the Basal activity (MC4R variants [2]; [8]) is listed as 172 % of WT.

In the case of “Y35X (MVNSTHRGMHTSLHLWNRSSYRLHSNASESLGKG; nonsense Y35X; UniProt P32245 1-34, looked up, fragment)”, the Cell surface expression (MC4R variants [1]; [7]) is listed as 0 % of WT and the Cell surface expression (MC4R variants [1]; [9]) is listed as 5 % of WT.

For “Y35X;D37V (MVNSTHRGMHTSLHLWNRSSYRLHSNASESLGKG; nonsense Y35X; D37V; UniProt P32245 1-34, looked up, fragment)”, the Cell surface expression (MC4R variants [1]; [10]) is given as 0 % of WT and the Basal activity (MC4R variants [2]; [10]) is given as 10 % of WT.

For Y287X, the Cell surface expression (MC4R variants [1]; [9]) is given as 30 % of WT and the Cell surface expression (MC4R variants [1]; ref Yeo GS, Hum Mol Genet, 2003) is given as 0 % of WT.

For β-MSH, the “cAMP Emax - Ligand no.2” value (MC4R variants [3]; MC4R C40Y, COS-7 cell line, ref Hughes DA, Hum Genet, 2009) is given as 98.0 % of WT, the “cAMP Emax - Ligand no.2 (% of WT)” value (MC4R variants [3]; MC4R C271R, COS-7 cell line, ref Tarnow P, J Biol Chem, 2003) is given as 22.5 % of WT and the “cAMP Emax - Ligand no.2” value (MC4R variants [3]; MC4R D37G, ref Hughes DA, Hum Genet, 2009) is given as 75.0 % of WT. The “cAMP Emax - Ligand no.2 (% of WT)” value (MC4R variants [3]; [11]) was 0.0 % of WT, the “cAMP Emax - Ligand no.2 (% of WT)” value (MC4R variants [3]; [12]) was 96.1 % of WT and the “cAMP Emax - Ligand no.2 (% of WT)” value (MC4R variants [3]; [13]) was 100.0 % of WT. The “cAMP Emax - Ligand no.2 (% of WT)” value (MC4R variants [3]; MC4R F202L, COS-7 cell line, ref Hughes DA, Hum Genet, 2009) was 79.0 % of WT, the “cAMP Emax - Ligand no.2” value (MC4R variants [3]; MC4R F280AfsX12, ref Xiang Z, Biochemistry, 2006) was 0.0 % of WT and the “cAMP Emax - Ligand no.2 (% of WT)” value (MC4R variants [3]; MC4R G181D, ref Xiang Z, Biochemistry, 2010) was 0.0 % of WT. The “cAMP Emax - Ligand no.2 (% of WT)” value (MC4R variants [3]; [14]) was 104.9 % of WT, the “cAMP Emax - Ligand no.2 (% of WT)” value (MC4R variants [3]; MC4R H158R, COS-7 cell line, ref Hinney A, J Clin Endocrinol Metab, 2006) was 122.0 % of WT and the “cAMP Emax - Ligand no.2 (% of WT)” value (MC4R variants [3]; MC4R I125K, ref Xiang Z, Biochemistry, 2006) was 0.0 % of WT. The “cAMP Emax - Ligand no.2 (% of WT)” value (MC4R variants [3]; MC4R I170V, COS-7 cell line, ref Hughes DA, Hum Genet, 2009) was 97.0 % of WT, the “cAMP Emax - Ligand no.2” value (MC4R variants [3]; [15]) was 0.0 % of WT and the “cAMP Emax - Ligand no.2 (% of WT)” value (MC4R variants [3]; [16]) was 65.8 % of WT. For the same molecule, the “cAMP Emax - Ligand no.2 (% of WT)” value (MC4R variants [3]; [17]) was 94.1 % of WT, the “cAMP Emax - Ligand no.2” value (MC4R variants [3]; MC4R I251WfsX34, ref Xiang Z, Biochemistry, 2010) was 0.0 % of WT and the “cAMP Emax - Ligand no.2” value (MC4R variants [3]; MC4R L211MfsX6, ref Xiang Z, Biochemistry, 2006) was 0.0 % of WT. For the same molecule, the “cAMP Emax - Ligand no.2 (% of WT)” value (MC4R variants [3]; MC4R M200V, COS-7 cell line, ref Hinney A, J Clin Endocrinol Metab, 2006) was 91.0 % of WT, the “cAMP Emax - Ligand no.2 (% of WT)” value (MC4R variants [3]; [18]) was 20.0 % of WT and the “cAMP Emax - Ligand no.2 (% of WT)” value (MC4R variants [3]; MC4R Q156R, COS-7 cell line, ref Hinney A, J Clin Endocrinol Metab, 2006) was 92.0 % of WT. For the same molecule, the “cAMP Emax - Ligand no.2” value (MC4R variants [3]; MC4R Q307X, ref Santoro N, BMC Med Genet, 2009) was 0.0 % of WT, the “cAMP Emax - Ligand no.2” value (MC4R variants [3]; [19]) was 0.0 % of WT and the “cAMP Emax - Ligand no.2” value (MC4R variants [3]; MC4R R7C, COS-7 cell line, ref Hinney A, J Clin Endocrinol Metab, 2006) was 83.0 % of WT. For the same molecule, the “cAMP Emax - Ligand no.2 (% of WT)” value (MC4R variants [3]; MC4R R236H, COS-7 cell line, ref Hinney A, J Clin Endocrinol Metab, 2006) was 96.0 % of WT, the “cAMP Emax - Ligand no.2” value (MC4R variants [3]; MC4R S36T, COS-7 cell line, ref Hughes DA, Hum Genet, 2009) was 82.0 % of WT and the “cAMP Emax - Ligand no.2 (% of WT)” value (MC4R variants [3]; MC4R S136F, COS-7 cell line, ref Tarnow P, Obes Facts, 2008) was 23.0 % of WT. For the same molecule, the “cAMP Emax - Ligand no.2 (% of WT)” value (MC4R variants [3]; MC4R S191T, COS-7 cell line, ref Hughes DA, Hum Genet, 2009) was 97.0 % of WT, the “cAMP Emax - Ligand no.2 (% of WT)” value (MC4R variants [3]; MC4R T162R, COS-7 cell line, ref Ochoa MC, Clin Endocrinol, 2007) was 80.0 % of WT and the “cAMP Emax - Ligand no.2 (% of WT)” value (MC4R variants [3]; [20]) was 79.5 % of WT. The “cAMP Emax - Ligand no.2 (% of WT)” value (MC4R variants [3]; MC4R V166I, COS-7 cell line, ref Hinney A, J Clin Endocrinol Metab, 2006) was 105.0 % of WT, the “cAMP Emax - Ligand no.2 (% of WT)” value (MC4R variants [3]; MC4R V166I, COS-7 cell line, ref Hughes DA, Hum Genet, 2009) was 105.0 % of WT and the “cAMP Emax - Ligand no.2 (% of WT)” value (MC4R variants [3]; MC4R W174C, ref Xiang Z, Biochemistry, 2010) was 0.0 % of WT. The “cAMP Emax - Ligand no.2” value (MC4R variants [3]; MC4R Y35X, ref Xiang Z, Biochemistry, 2006) was 0.0 % of WT, the “Binding Bmax - Ligand no.2 (% of WT)” value (MC4R variants [4]; [11]) was 0.0 % of WT and the “Binding Bmax - Ligand no.2 (% of WT)” value (MC4R variants [4]; [12]) was 23.9 % of WT. For the same molecule, the “Binding Bmax - Ligand no.2 (% of WT)” value (MC4R variants [4]; [13]) was 116.0 % of WT, the “Binding Bmax (% of WT)” value (MC4R variants [4]; MC4R F280L, ref Wang ZQ, Biochim Biophys Acta, 2011) was 57.4 % of WT and the “Binding Bmax - Ligand no.2 (% of WT)” value (MC4R variants [4]; [14]) was 123.2 % of WT. The “Binding Bmax (% of WT)” value (MC4R variants [4]; MC4R H76R, ref Wang ZQ, Biochim Biophys Acta, 2011) was 81.7 % of WT, the “Binding Bmax (% of WT)” value (MC4R variants [4]; MC4R I69R, ref Wang ZQ, Biochim Biophys Acta, 2011) was 0.0 % of WT and the “Binding Bmax - Ligand no.2” value (MC4R variants [4]; [15]) was 0.0 % of WT. The “Binding Bmax - Ligand no.2 (% of WT)” value (MC4R variants [4]; [16]) was 150.5 % of WT, the “Binding Bmax - Ligand no.2 (% of WT)” value (MC4R variants [4]; [17]) was 71.2 % of WT and the “Binding Bmax (% of WT)” value (MC4R variants [4]; MC4R I289L, ref Wang ZQ, Biochim Biophys Acta, 2011) was 127.4 % of WT. The “Binding Bmax (% of WT)” value (MC4R variants [4]; MC4R M79I, ref Wang ZQ, Biochim Biophys Acta, 2011) was 98.2 % of WT, the “Binding Bmax - Ligand no.2 (% of WT)” value (MC4R variants [4]; [18]) was 0.0 % of WT and the “Binding Bmax - Ligand no.2” value (MC4R variants [4]; [19]) was 0.0 % of WT. For the same molecule, the “Binding Bmax (% of WT)” value (MC4R variants [4]; MC4R R305S, ref Wang ZQ, Biochim Biophys Acta, 2011) was 128.1 % of WT, the “Binding Bmax (% of WT)” value (MC4R variants [4]; MC4R S94N, ref Wang ZQ, Biochim Biophys Acta, 2011) was 41.0 % of WT and the “Binding Bmax - Ligand no.2 (% of WT)” value (MC4R variants [4]; [20]) was 125.0 % of WT. The “Binding Bmax (% of WT)” value (MC4R variants [4]; MC4R Y332C, ref Wang ZQ, Biochim Biophys Acta, 2011) was 129.6 % of WT and the “Binding Bmax (% of WT)” value (MC4R variants [4]; MC4R Y332H, ref Wang ZQ, Biochim Biophys Acta, 2011) was 150.0 % of WT.

B1: I170del (protein, UniProt P32245 1-332, looked up, variant I170*)
Melanocortin receptor 4: MVNSTHRGMHTSLHLWNRSSYRLHSNASESLGKGYSDGGCYEQLFVSPEVFVTLGVISLLENILVIVAIAKNKNLHSPMYFFICSLAVADMLVSVSNGSETIVITLLNSTDTDAQSFTVNIDNVIDSVICSSLLASICSLLSIAVDRYFTIFYALQYHNIMTVKRVGIISCIWAACTVSGILFIIYSDSSAVIICLITMFFTMLALMASLYVHMFLMARLHIKRIAVLPGTGAIRQGANMKGAITLTILIGVFVVCWAPFFLHLIFYISCPQNPYCVCFMSHFNLYLILIMCNSIIDPLIYALRSQELRKTFKEIICCYPLGGLCDLSSRY
For B1, the Cell surface expression (MC4R variants [1]; [21]) is listed as 10 % of WT and the Basal activity (MC4R variants [2]; [21]) is listed as 25 % of WT.

B2: Y80X (protein, UniProt P32245 1-79, looked up, fragment)
chain: MVNSTHRGMHTSLHLWNRSSYRLHSNASESLGKGYSDGGCYEQLFVSPEVFVTLGVISLLENILVIVAIAKNKNLHSPM
modifications: nonsense Y80X
For B2, the Cell surface expression (MC4R variants [1]; [10]) is listed as 0 % of WT and the Basal activity (MC4R variants [2]; [10]) is listed as 10 % of WT.
